Measured values: PubChem BioAssay AID256 (DTP/NCI, 2004)
Toxic doses and inconclusive results are not listed. The calls were made as follows: active = survival T/C of 150% or more; inactive = T/C below 125% in these data.

Test system: CD2F1 mice, L1210 leukemia ip, survival T/C
Experiment: NCI In Vivo Anticancer Drug Screen. Data for tumor model L1210 Leukemia (intraperitoneal) in CD2F1 (CDF1) mice
Conditions: higher = longer survival
Method in brief: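 Transplantable tumor in mice; compound-treated vs vehicle-treated groups. Read-out = treated/control ratio of the measured endpoint.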

[1] = endpoint: mean survival time, dose: 100.0 mg/kg/injection, schedule: Q01DX009 (ip), vehicle: saline with Tween-80
[2] = endpoint: mean survival time, dose: 100.0 mg/kg/injection, schedule: Q04DX003 (ip), vehicle: saline with Tween-80
[3] = endpoint: mean survival time, dose: 200.0 mg/kg/injection, schedule: Q04DX003 (ip), vehicle: saline with Tween-80
[4] = endpoint: mean survival time, dose: 400.0 mg/kg/injection, schedule: Q04DX003 (ip), vehicle: saline with Tween-80
[5] = endpoint: mean survival time, dose: 100.0 mg/kg/injection, schedule: Q01DX001 (ip), vehicle: saline
[6] = endpoint: mean survival time, dose: 200.0 mg/kg/injection, schedule: Q01DX001 (ip), vehicle: saline
[7] = endpoint: mean survival time, dose: 400.0 mg/kg/injection, schedule: Q01DX001 (ip), vehicle: saline
[8] = endpoint: mean survival time, dose: 12.5 mg/kg/injection, schedule: Q01DX005 (ip), vehicle: water
[9] = endpoint: mean survival time, dose: 25.0 mg/kg/injection, schedule: Q01DX005 (ip), vehicle: water
[10] = endpoint: mean survival time, dose: 50.0 mg/kg/injection, schedule: Q01DX005 (ip), vehicle: water
[11] = endpoint: mean survival time, dose: 50.0 mg/kg/injection, schedule: Q01DX009 (ip), vehicle: Klucel (hydroxypropylcellulose) (HPC)
[12] = endpoint: mean survival time, dose: 100.0 mg/kg/injection, schedule: Q01DX009 (ip), vehicle: Klucel (hydroxypropylcellulose) (HPC)
[13] = endpoint: mean survival time, dose: 200.0 mg/kg/injection, schedule: Q01DX009 (ip), vehicle: saline with Tween-80

Measured: T/C

O=C(Nc1ccc(Oc2ccc(Cl)c(Cl)c2)c(Cl)c1)Nc1cc(Cl)c(Cl)cc1S(=O)(=O)O
inactive: endpoint: mean survival time, dose: 100.0 mg/kg/injection, schedule: Q01DX001 (ip), vehicle: saline sonified 96 % of control | [1] 97 % of control | endpoint: mean survival time, dose: 200.0 mg/kg/injection, schedule: Q01DX001 (ip), vehicle: saline sonified 93 % of control | endpoint: mean survival time, dose: 400.0 mg/kg/injection, schedule: Q01DX001 (ip), vehicle: saline sonified 96 % of control

CCOC(=O)C(Cc1ccccc1Cl)(NC(C)=O)C(=O)OCC
inactive: [2] 100 % of control | [3] 102 % of control | [4] 91 % of control

NC(=O)c1csc(COCCO)n1
inactive: endpoint: median survival time, dose: 40.63 mg/kg/injection, schedule: Q01DX005 (ip), vehicle: water 102 % of control | endpoint: median survival time, dose: 81.25 mg/kg/injection, schedule: Q01DX005 (ip), vehicle: water 99 % of control | endpoint: median survival time, dose: 162.5 mg/kg/injection, schedule: Q01DX005 (ip), vehicle: water 103 % of control | endpoint: median survival time, dose: 325.0 mg/kg/injection, schedule: Q01DX005 (ip), vehicle: water 96 % of control

CCOC(=O)/C=C(/C)N
inactive: [5] 101 % of control | [6] 101 % of control | [7] 107 % of control

C=C(Cl)CNC(N)=S
inactive: [2] 99 % of control | [3] 98 % of control

O=CNc1ccc(C(=O)O)cc1
inactive: [2] 94 % of control | [3] 94 % of control | [4] 100 % of control

[Cl][Pt+2][Cl].[NH-]c1ccccc1C(F)(F)F.[NH-]c1ccccc1C(F)(F)F
inactive: endpoint: mean survival time, dose: 12.5 mg/kg/injection, schedule: Q04DX003 (ip), vehicle: distilled water + Tween-80 97 % of control | endpoint: mean survival time, dose: 25.0 mg/kg/injection, schedule: Q04DX003 (ip), vehicle: distilled water + Tween-80 97 % of control | endpoint: mean survival time, dose: 50.0 mg/kg/injection, schedule: Q04DX003 (ip), vehicle: distilled water + Tween-80 106 % of control | endpoint: mean survival time, dose: 100.0 mg/kg/injection, schedule: Q04DX003 (ip), vehicle: distilled water + Tween-80 114 % of control

CN(C)CCC(=O)c1ccc([N+](=O)[O-])cc1
inactive: endpoint: mean survival time, dose: 1.25 mg/kg/injection, schedule: Q01DX009 (ip), vehicle: saline with Tween-80 102 % of control | endpoint: mean survival time, dose: 2.5 mg/kg/injection, schedule: Q01DX009 (ip), vehicle: saline with Tween-80 96 % of control | endpoint: mean survival time, dose: 5.0 mg/kg/injection, schedule: Q01DX009 (ip), vehicle: saline with Tween-80 95 % of control | endpoint: mean survival time, dose: 5.0 mg/kg/injection, schedule: Q04DX003 (ip), vehicle: saline with Tween-80 100 % of control

CCCCN(C)CCNc1cc(C)nc(/N=C(\N)Nc2ccc(Cl)c(Cl)c2)n1
inactive: endpoint: mean survival time, dose: 75.0 mg/kg/injection, schedule: Q01DX001 (ip), vehicle: other 97 % of control

COC1OC(CO)C(n2cnc3c2c(=O)n(C)c(=O)n3C)C=C1NC(C)=O (stereo not given)
inactive: endpoint: mean survival time, dose: 12.5 mg/kg/injection, schedule: Q01DX005 (ip), vehicle: distilled water + Tween-80 100 % of control | [8] 88 % of control | endpoint: mean survival time, dose: 25.0 mg/kg/injection, schedule: Q01DX005 (ip), vehicle: distilled water + Tween-80 96 % of control | [9] 96 % of control | [10] 92 % of control | endpoint: mean survival time, dose: 100.0 mg/kg/injection, schedule: Q01DX005 (ip), vehicle: distilled water + Tween-80 92 % of control | endpoint: mean survival time, dose: 100.0 mg/kg/injection, schedule: Q01DX005 (ip), vehicle: water 103 % of control | endpoint: mean survival time, dose: 200.0 mg/kg/injection, schedule: Q01DX005 (ip), vehicle: distilled water + Tween-80 100 % of control | endpoint: mean survival time, dose: 200.0 mg/kg/injection, schedule: Q01DX005 (ip), vehicle: water 96 % of control

O=S(=O)(OCC1C2CC3C(C2)C13)c1ccc(Br)cc1 (stereo not given)
inactive: endpoint: mean survival time, dose: 100.0 mg/kg/injection, schedule: Q04DX003 (ip), vehicle: other 101 % of control | endpoint: mean survival time, dose: 200.0 mg/kg/injection, schedule: Q04DX003 (ip), vehicle: other 100 % of control | endpoint: mean survival time, dose: 400.0 mg/kg/injection, schedule: Q04DX003 (ip), vehicle: other 91 % of control

Cc1ncc(CO)n1C
inactive: [11] 94 % of control | [12] 105 % of control | endpoint: mean survival time, dose: 200.0 mg/kg/injection, schedule: Q01DX009 (ip), vehicle: Klucel (hydroxypropylcellulose) (HPC) 105 % of control

Nc1ncnc2c1nc(Cl)n2C1OC2COP(=O)(O)OC2C1O (stereo not given)
inactive: [8] 96 % of control | [9] 100 % of control | [10] 100 % of control

CCCC(O)C[N+](=O)[O-] (stereo not given)
inactive: endpoint: mean survival time, dose: 100.0 mg/kg/injection, schedule: Q01DX009 (ip), vehicle: saline 104 % of control | endpoint: mean survival time, dose: 200.0 mg/kg/injection, schedule: Q01DX009 (ip), vehicle: saline 111 % of control

OCCCCCCl
inactive: [5] 104 % of control | [6] 98 % of control | [7] 101 % of control

C=C(Cl)CN(CCCC(=O)O)c1ccccc1
inactive: endpoint: mean survival time, dose: 25.0 mg/kg/injection, schedule: Q01DX009 (ip), vehicle: other 95 % of control | endpoint: mean survival time, dose: 50.0 mg/kg/injection, schedule: Q01DX009 (ip), vehicle: other 89 % of control | endpoint: mean survival time, dose: 100.0 mg/kg/injection, schedule: Q01DX009 (ip), vehicle: other 97 % of control

CC12CCC(c3cn(C(=O)c4cccnc4)nc31)C2(C)C (stereo not given)
inactive: [11] 102 % of control | [12] 94 % of control

CCOC(=O)Cn1cnc2cc(C)c(C)cc21
inactive: [1] 101 % of control | [2] 94 % of control | [13] 94 % of control | [3] 100 % of control | [4] 96 % of control

CCCC/C=C/C1CCCCO1 (stereo not given)
inactive: endpoint: mean survival time, dose: 50.0 mg/kg/injection, schedule: Q01DX009 (ip), vehicle: saline with Tween-80 94 % of control | [1] 97 % of control | [13] 105 % of control

O=S(=O)(O)C(S(=O)(=O)O)S(=O)(=O)O
inactive: [2] 96 % of control | [3] 97 % of control | [4] 93 % of control

Cc1ccc(S(=O)(=O)OC2C(O)OCC3OC(C)(C)OC32)cc1 (stereo not given)
inactive: [2] 98 % of control | [3] 102 % of control | [4] 93 % of control
